Measurements from patent US10202389B2, “Pyrazolopyrimidinyl inhibitors of ubiquitin-activating enzyme” (Millennium Pharmaceuticals, Inc., priority 2012, dated 2019).

Target: recombinant human UAE (Homo sapiens (Human), UniProt P22314)
Test: Ubiquitin Activating Enzyme (UAE) HTRF Assay
Conditions: read-out: % inhibition @0.111 μM
Experimental: After incubation for 120 minutes, quantification of the FRET is performed on the Pherostar (BMG).
For compounds whose values are marked with an asterisk (*), mouse UAE was used. For all other compounds, human UAE was used.

recombinant human UAE, sequence (P22314 whole entry): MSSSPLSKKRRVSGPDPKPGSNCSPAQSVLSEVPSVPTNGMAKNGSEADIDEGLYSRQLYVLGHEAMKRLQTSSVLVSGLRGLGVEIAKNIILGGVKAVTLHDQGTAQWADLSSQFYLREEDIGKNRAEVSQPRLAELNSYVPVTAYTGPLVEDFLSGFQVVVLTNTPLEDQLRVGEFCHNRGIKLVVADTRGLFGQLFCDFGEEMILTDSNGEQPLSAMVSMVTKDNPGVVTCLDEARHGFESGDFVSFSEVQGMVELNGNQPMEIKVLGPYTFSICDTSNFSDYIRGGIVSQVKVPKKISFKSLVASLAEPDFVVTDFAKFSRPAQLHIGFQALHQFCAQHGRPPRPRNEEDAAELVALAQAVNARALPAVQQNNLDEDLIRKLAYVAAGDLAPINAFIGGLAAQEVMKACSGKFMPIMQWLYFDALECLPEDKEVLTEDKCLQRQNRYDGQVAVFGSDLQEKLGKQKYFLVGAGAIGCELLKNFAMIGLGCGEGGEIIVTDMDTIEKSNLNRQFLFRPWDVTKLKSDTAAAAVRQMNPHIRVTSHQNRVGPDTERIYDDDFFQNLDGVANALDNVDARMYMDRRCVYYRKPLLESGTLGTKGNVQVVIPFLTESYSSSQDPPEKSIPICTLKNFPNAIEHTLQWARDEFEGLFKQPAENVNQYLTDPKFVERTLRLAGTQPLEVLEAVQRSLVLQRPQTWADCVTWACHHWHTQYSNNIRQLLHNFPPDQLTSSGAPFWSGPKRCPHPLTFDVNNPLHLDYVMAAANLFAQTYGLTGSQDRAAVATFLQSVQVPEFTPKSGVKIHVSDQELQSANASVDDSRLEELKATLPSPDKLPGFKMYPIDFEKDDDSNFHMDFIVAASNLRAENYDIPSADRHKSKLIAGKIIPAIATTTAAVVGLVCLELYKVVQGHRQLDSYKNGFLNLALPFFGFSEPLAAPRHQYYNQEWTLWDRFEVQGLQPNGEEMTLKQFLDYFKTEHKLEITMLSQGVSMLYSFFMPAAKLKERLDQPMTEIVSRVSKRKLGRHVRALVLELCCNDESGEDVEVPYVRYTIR

Row | inhibition at 0.111 µM [%] | SMILES
1 | 96 | NS(=O)(=O)OC[C@H]1C[C@@H](Nc2ccnc3cc(-c4cccc(C(F)(F)F)n4)nn23)[C@H](O)[C@@H]1O (relative stereo) [Compound I-064, (rac)-((1R,2R,3S,4R)-2,3-dihydroxy-4-(2-(6-(trifluoromethyl)pyridin-2-yl)pyrazolo[1,5-a]pyrimidin-7-ylamino)cyclopentyl)methyl rel-sulfamate]
2 | 100 | NS(=O)(=O)OC[C@H]1C[C@@H](Nc2ccnc3cc(-c4csc5ccc(F)cc45)nn23)[C@H](O)[C@@H]1O (relative stereo) [Compound I-081, (rac)-((1R,2R,3S,4R)-4-(2-(5-fluorobenzo[b]thiophen-3-yl)pyrazolo[1,5-a]pyrimidin-7-ylamino)-2,3-dihydroxycyclopentyl)methyl rel-sulfamate]
3 | 100 | CN(C)c1ccc(-c2cc3nccc(N[C@@H]4C[C@H](COS(N)(=O)=O)[C@@H](O)[C@H]4O)n3n2)c2ccccc12 [Compound I-107, (s.e.)-((1R,2R,3S,4R)-4-(2-(4-(dimethylamino)naphthalen-1-yl)pyrazolo[1,5-a]pyrimidin-7-ylamino)-2,3-dihydroxycyclopentyl)methyl sulfamate]
4 | 100 | NS(=O)(=O)OC[C@H]1C[C@@H](Nc2ccnc3cc(-c4cccc5c4oc4ccccc45)nn23)[C@H](O)[C@@H]1O [Compound I-103, (s.e.)-((1R,2R,3S,4R)-4-(2-(dibenzo[b,d]furan-4-yl)pyrazolo[1,5-a]pyrimidin-7-ylamino)-2,3-dihydroxycyclopentyl)methyl sulfamate]
5 | 95 | NS(=O)(=O)OC[C@H]1C[C@@H](Nc2ccnc3cc(-c4ccccc4Oc4ccccc4)nn23)[C@H](O)[C@@H]1O (relative stereo) [Compound I-068, (rac)-((1R,2R,3S,4R)-2,3-dihydroxy-4-(2-(2-phenoxyphenyl)pyrazolo[1,5-a]pyrimidin-7-ylamino)cyclopentyl)methyl rel-sulfamate]
6 | 99 | NS(=O)(=O)OC[C@H]1C[C@@H](Nc2ccnc3cc(-c4cc5ccccc5o4)nn23)[C@H](O)[C@@H]1O (relative stereo) [Compound I-086, (rac)-((1R,2R,3S,4R)-4-(2-(benzofuran-2-yl)pyrazolo[1,5-a]pyrimidin-7-ylamino)-2,3-dihydroxycyclopentyl)methyl rel-sulfamate]
7 | 100 | NS(=O)(=O)OC[C@H]1C[C@@H](Nc2ccnc3cc(-c4cccc(SCC5CC5)c4)nn23)[C@H](O)[C@@H]1O (relative stereo) [Compound I-076, (rac)-((1R,2R,3S,4R)-4-(2-(3-(cyclopropylmethylthio)phenyl)pyrazolo[1,5-a]pyrimidin-7-ylamino)-2,3-dihydroxycyclopentyl)methyl rel-sulfamate]
8 | 89 | NS(=O)(=O)OC[C@H]1C[C@@H](Nc2ccnc3cc(-c4ccc(C(F)(F)F)s4)nn23)[C@H](O)[C@@H]1O (relative stereo) [Compound I-060, (rac)-((1R,2R,3S,4R)-2,3-Dihydroxy-4-((2-(5-(trifluoromethyl)thiophen-2-yl)pyrazolo[1,5-a]pyrimidin-7-yl)amino)cyclopentyl)methyl rel-sulfamate]
9 | 50 | NS(=O)(=O)OC[C@H]1C[C@@H](Nc2c(Cl)cnc3cc(-c4cccc(SC(F)(F)F)c4)nn23)[C@H](O)[C@@H]1O [Compound I-125, (s.e.)-{(1R,2R,3S,4R)-4-[(6-chloro-2-{3-[(trifluoromethyl)sulfanyl]phenyl}pyrazolo[1,5-a]pyrimidin-7-yl)amino]-2,3-dihydroxycyclopentyl}methyl sulfamate]
10 | 80 | NS(=O)(=O)OC[C@H]1C[C@@H](Nc2ccnc3cc(-c4ccc(SC(F)(F)F)cc4)nn23)[C@H](O)[C@@H]1O (relative stereo) [Compound I-080, (rac)-((1R,2R,3S,4R)-2,3-dihydroxy-4-(2-(4-(trifluoromethylthio)phenyl)pyrazolo[1,5-a]pyrimidin-7-ylamino)cyclopentyl)methyl rel-sulfamate]
11 | 100 | CC(C)(C)c1cccc(-c2cc3nccc(N[C@@H]4C[C@H](COS(N)(=O)=O)[C@@H](O)[C@H]4O)n3n2)n1 (relative stereo) [Compound I-052, (rac)-((1R,2R,3S,4R)-4-(2-(6-tert-butylpyridin-2-yl)pyrazolo[1,5-a]pyrimidin-7-ylamino)-2,3-dihydroxycyclopentyl)methyl rel-sulfamate]
12 | 91 | NS(=O)(=O)OC[C@H]1C[C@@H](Nc2ccnc3cc(-c4cccc(C(=O)c5ccccc5)c4)nn23)[C@H](O)[C@@H]1O (relative stereo) [Compound I-073, (rac)-((1R,2R,3S,4R)-4-(2-(3-benzoylphenyl)pyrazolo[1,5-a]pyrimidin-7-ylamino)-2,3-dihydroxycyclopentyl)methyl rel-sulfamate]
13 | 100 | NS(=O)(=O)OC[C@H]1C[C@@H](Nc2ccnc3cc(-c4ccc5cc(F)ccc5c4)nn23)[C@H](O)[C@@H]1O [Compound I-113, (s.e.)-((1R,2R,3S,4R)-4-(2-(6-fluoronaphthalen-2-yl)pyrazolo[1,5-a]pyrimidin-7-ylamino)-2,3-dihydroxycyclopentyl)methyl sulfamate]

The next lines start with the molecule.

Row | SMILES | inhibition at 0.111 µM [%]
14 | NS(=O)(=O)OC[C@H]1C[C@@H](Nc2ccnc3cc(-c4cccc(C5=CCCC5)c4)nn23)[C@H](O)[C@@H]1O (relative stereo) [Compound I-047, (rac)-(1R,2R,3S,4R)-4-(2-(3-cyclopentenylphenyl)pyrazolo[1,5-a]pyrimidin-7-ylamino)-2,3-dihydroxycyclopentyl)methyl rel-sulfamate] | 100
15 | NS(=O)(=O)OC[C@H]1C[C@@H](Nc2ccnc3cc(-c4cccc(C(F)(F)F)c4)nn23)[C@H](O)[C@@H]1O (relative stereo) [Compound I-007, (rac)-((1R,2R,3S,4R)-2,3-Dihydroxy-4-((2-(3-(trifluoromethyl)phenyl)pyrazolo[1,5-a]pyrimidin-7-yl)amino)cyclopentyl)methyl rel-sulfamate] | 99
16 | NS(=O)(=O)OC[C@H]1C[C@@H](Nc2ccnc3cc(-c4ccc(Cl)cc4Cl)nn23)[C@H](O)[C@@H]1O (relative stereo) [Compound I-013, (rac)-[(1R,2R,3S,4R)-4-{[2-(2,4-dichlorophenyl)pyrazolo[1,5-a]pyrimidin-7-yl]amino}-2,3-dihydroxycyclopentyl]methyl rel-sulfamate] | 84
17 | NS(=O)(=O)OC[C@H]1C[C@@H](Nc2ccnc3cc(-c4ccc5ccccc5c4)nn23)[C@H](O)[C@@H]1O (relative stereo) [Compound I-016, (rac)-((1R,2R,3S,4R)-2,3-dihydroxy-4-(2-(naphthalen-2-yl)pyrazolo[1,5-a]pyrimidin-7-ylamino)cyclopentyl)methyl rel-sulfamate] | 99
18 | NS(=O)(=O)OC[C@H]1C[C@@H](Nc2ccnc3cc(-c4nc(-c5ccccc5)cs4)nn23)[C@H](O)[C@@H]1O (relative stereo) [Compound I-031, (rac)-[(1R,2R,3S,4R)-2,3-dihydroxy-4-{[2-(4-phenyl-1,3-thiazol-2-yl)pyrazolo[1,5-a]pyrimidin-7-yl]amino}cyclopentyl]methyl rel-sulfamate] | 100
19 | NS(=O)(=O)OC[C@H]1C[C@@H](Nc2ccnc3cc(-c4cccc(N5CCCC5)c4)nn23)[C@H](O)[C@@H]1O (relative stereo) [Compound I-046, (rac)-((1R,2R,3S,4R)-2,3-dihydroxy-4-(2-(3-(pyrrolidin-1-yl)phenyl)pyrazolo[1,5-a]pyrimidin-7-ylamino)cyclopentyl)methyl rel-sulfamate] | 100
20 | NS(=O)(=O)OC[C@H]1C[C@@H](Nc2ccnc3cc(-c4cccc(Oc5ccccc5)c4)nn23)[C@H](O)[C@@H]1O (relative stereo) [Compound I-051, (rac)-((1R,2R,3S,4R)-2,3-Dihydroxy-4-((2-(3-phenoxyphenyl)pyrazolo[1,5-a]pyrimidin-7-yl)amino)cyclopentyl)methyl rel-sulfamate] | 90
21 | NS(=O)(=O)OC[C@H]1C[C@@H](Nc2ccnc3cc(-c4cccc(OC(F)F)c4)nn23)[C@H](O)[C@@H]1O (relative stereo) [Compound I-050, (rac)-((1R,2R,3S,4R)-4-((2-(3-(Difluoromethoxy)phenyl)pyrazolo[1,5-a]pyrimidin-7-yl)amino)-2,3-dihydroxycyclopentyl)methyl rel-sulfamate] | 100
22 | NS(=O)(=O)OC[C@H]1C[C@@H](Nc2ccnc3cc(-c4cnc5ccccc5c4)nn23)[C@H](O)[C@@H]1O (relative stereo) [Compound I-025, (rac)-((1R,2R,3S,4R)-2,3-dihydroxy-4-(2-(quinolin-3-yl)pyrazolo[1,5-a]pyrimidin-7-ylamino)cyclopentyl)methyl rel-sulfamate] | 93
23 | NS(=O)(=O)OC[C@H]1C[C@@H](Nc2ccnc3cc(-c4ccc5[nH]c6ccccc6c5c4)nn23)[C@H](O)[C@@H]1O (relative stereo) [Compound I-037, (rac)-[(1R,2R,3S,4R)-4-{[2-(9H-carbazol-3-yl)pyrazolo[1,5-a]pyrimidin-7-yl]amino}-2,3-dihydroxycyclopentyl]methyl rel-sulfamate] | 100
24 | NS(=O)(=O)OC[C@H]1C[C@@H](Nc2cc(Cl)nc3cc(-c4cccc5ccccc45)nn23)[C@H](O)[C@@H]1O (relative stereo) [Compound I-009, (rac)-((1R,2R,3S,4R)-4-{[5-chloro-2-(1-naphthyl)pyrazolo[1,5-a]pyrimidin-7-yl]amino}-2,3-dihydroxycyclopentyl)methyl rel-sulfamate] | 42
25 | NS(=O)(=O)OC[C@H]1C[C@@H](Nc2ccnc3cc(-c4cc(C(F)(F)F)ccc4F)nn23)[C@H](O)[C@@H]1O (relative stereo) [Compound I-029, (rac)-((1R,2R,3S,4R)-4-((2-(2-Fluoro-5-(trifluoromethyl)phenyl)pyrazolo[1,5-a]pyrimidin-7-yl)amino)-2,3-dihydroxycyclopentyl)methyl rel-sulfamate] | 100
